Data published in patent publication US5312919A, “Photooxidation products and derivatives thereof of merocyanine-540, their preparation and uses” (priority 1992, dated 1994).
Read-outs that look alike come from different tables or passages of the source.

How the values were obtained:
[1] = Cytotoxicity on normal human peripheral blood mononuclear cells (trypan blue dye exclusion); assay type: cell-based; settings: human, peripheral blood mononuclear cells, overnight, 37° C., read-out: % cell kill (mean ± S.E.M.)
Experimental: (§1) Preactivated MC 540 is abbreviated as pMC 540.
(§2) Merocil and Merodantoin were dissolved in cremophor EL whereas pMC 540 was prepared in 10% aqueous ethanol. […] Fresh human peripheral mononucleas cells (1×10^6 cells/ml) were treated with indicated concentration of compounds. After overnight incubation at 37° C., cell viability was determined by trypan blue dye exclusion method.

[2] = system: normal human peripheral blood mononuclear cells; experiment: as above; assay type: cell-based; settings: doses of Table 1
Experimental: as §1, §2

[3] = system: human Burkitt lymphoma Daudi cells; experiment: Cytotoxic effects on human Burkitt lymphoma Daudi cells (MTT assay); assay type: cell-based
Experimental: Human Burkitt Lymphoma Daudi cells (1×10^6 cells/ml) were treated with different concentrations of Merodantoin. After overnight incubation at 37° C., the tumor cells kill was determined by MTT assay.
Human Burkitt Lymphoma Daudi cells (1×10^6 cells/ml) were treated with different concentrations of Merocil. After overnight incubation at 37° C., the tumor cells kill was determined by MTT assay.
(§3) Each cell type (1×10^6 cells/ml; in triplicate) was treated with indicated concentrations of Merocil or Merodantoin. After overnight (20 hr.) or 5 day incubation periods, the cell viability was determined by MTT assay and calculated as a percentage of untreated controls.

[4] = system: C-33A (carcinoma cervix, human); experiment: Inhibition of cell proliferation, C-33A (MTT assay); assay type: cell-based; settings: for inhibition at 1.56 µg/mL: 1.56 μg/ml; for inhibition at 1.56 µg/mL / inhibition at 3.13 µg/mL / inhibition at 6.25 µg/mL / inhibition at 12.5 µg/mL: read-out: % inhibition of cell proliferation; for inhibition at 3.13 µg/mL: 3.13 μg/ml; for inhibition at 6.25 µg/mL: 6.25 μg/ml; for inhibition at 12.5 µg/mL: 12.5 μg/ml; for inhibition at 25 µg/mL: 25.0 μg/ml
Experimental: (§4) Preactivated MC 540 is abbreviated as pMC 540. […] 52: 831-38 (1990); and T. Mosmann, J. Immulog. Methods 65: 55-63 (1983).
as §3, with “merocil” for “Merocil”, “merodantoin.” for “Merodantoin.”, “controls. The toxicity in vehicle only (cremophor EL) controls was not detectable at highest dose tested.” for “controls.”

[5] = system: DU 145 (prostate, carcinoma, human); experiment: Inhibition of cell proliferation, DU 145 (MTT assay); assay type: cell-based; settings: for inhibition at 1.56 µg/mL / inhibition at 3.13 µg/mL / inhibition at 6.25 µg/mL / inhibition at 12.5 µg/mL: read-out: % inhibition of cell proliferation
Experimental: as §4
as §3, with “merocil” for “Merocil”, “merodantoin.” for “Merodantoin.”, “controls. The toxicity in vehicle only (cremophor EL) controls was not detectable at highest dose tested.” for “controls.”

[6] = system: MS 751 (cervix, carcinoma, human); experiment: Inhibition of cell proliferation, MS 751 (MTT assay); assay type: cell-based; settings: for inhibition at 1.56 µg/mL / inhibition at 3.13 µg/mL / inhibition at 6.25 µg/mL / inhibition at 12.5 µg/mL: read-out: % inhibition of cell proliferation
Experimental: as §4
as §3, with “merocil” for “Merocil”, “merodantoin.” for “Merodantoin.”, “controls. The toxicity in vehicle only (cremophor EL) controls was not detectable at highest dose tested.” for “controls.”

[7] = system: JEG-3 (choriocarcinoma, human); experiment: Inhibition of cell proliferation, JEG-3 (MTT assay); assay type: cell-based; settings: for inhibition at 1.56 µg/mL / inhibition at 3.13 µg/mL / inhibition at 6.25 µg/mL / inhibition at 12.5 µg/mL: read-out: % inhibition of cell proliferation
Experimental: as §4
as §3, with “merocil” for “Merocil”, “merodantoin.” for “Merodantoin.”, “controls. The toxicity in vehicle only (cremophor EL) controls was not detectable at highest dose tested.” for “controls.”

[8] = system: BT-20 (breast, adenocarcinoma); experiment: Inhibition of cell proliferation, BT-20 (MTT assay); assay type: cell-based; settings: Homo sapiens; for inhibition at 1.56 µg/mL: 1.56 μg/ml; for inhibition at 1.56 µg/mL / inhibition at 3.13 µg/mL / inhibition at 6.25 µg/mL / inhibition at 12.5 µg/mL: read-out: % inhibition of cell proliferation; for inhibition at 3.13 µg/mL: 3.13 μg/ml; for inhibition at 6.25 µg/mL: 6.25 μg/ml; for inhibition at 12.5 µg/mL: 12.5 μg/ml; for inhibition at 25 µg/mL: 25.0 μg/ml
Text: Preactivated MC 540 is abbreviated as pMC 540. […] 52: 831-38 (1990); and T. Mosmann, J. Immulog. Methods 65: 55-63 (1983). […]

U266B1 (myeloma) = experiment: Inhibition of cell proliferation, U266B1 (MTT assay); assay type: cell-based; settings: 24 hr.
Experimental: as §4
Each cell type (1×10^6 cells/ml; in triplicate) was treated with indicated concentrations of merocil or merodantoin. […] The cytotoxicity in vehicle only (cremophor EL) controls was not detectable at highest dose tested.

[9] = system: human immunodeficiency virus (HIV-1); experiment: Inactivation of cell free human immunodeficiency virus (viability of MT-4 target cells, MTT assay); assay type: cell-based
Experimental: as §4
Cell free human immunodeficiency virus (HIV-1) was either left untreated or treated with indicated doses of Merocil or Merodantoin for one hour at 37° C. and added to MT-4 target cells. After 4 hour incubation at 37° C., the cells were washed three times and further incubated in drug free fresh growth medium (complete RPMI-1640) at 37° C. for 4 days. On day four, 50% of the culture supernatant was replaced with fresh growth medium to prevent cell death due to possible nutrient depletion. The viability of the cell was determined on day 11 by MTT assay. […] The viability of the MT-4 cells was not affected by Merocil or Merodantoin under the experimental conditions described above.

certain tumor cells = experiment: Inhibition of proliferation of tumor cells (overall conclusion); assay type: cell-based
Text: as §4

[10] = system: L1210 mouse leukemia cells; experiment: Combined effect on L1210 mouse leukemia cells (MTT assay); settings: MC = 12.5 μg/ml; MD = 25 μg/ml; MZ = 25 μg/ml; overnight
Experimental: The biological activities of the photooxidation products of MC 540 were determined. Preactivated MC 540 is abbreviated as pMC 540. Assays of antitumor activities of the products were carried out according to published standard methods.
Mouse leukemia L1210 cells (1 × 10^6 cells/ml) were treated wit
different combinations of the indicated compounds (isolated from
preactivated merocyanine 540). After overnight incubation the cell kill

**Q.** Which results are given for `CCCCN1C(=O)C(=O)N(CCCC)C1=S` [Merodantoin, N,N'-Dibutyl-2-thio-4,5-imidazolindion]?
**A.** cytotoxicity ([1]; 1.56 μg/ml): 4.33 ± 1.07%; cytotoxicity ([1]; 3.13 μg/ml): 3.67 ± 0.51%; cytotoxicity ([1]; 6.25 μg/ml): 5.33 ± 0.84%; cytotoxicity ([1]; 12.5 μg/ml): 11.3 ± 1.83%; cytotoxicity ([1]; 25.0 μg/ml): 25.7 ± 0.51%; toxicity to normal human peripheral blood mononuclear cells [2]: relatively non-toxic; growth inhibition of cultured Daudi lymphoma cells ([3]; 25 μg/ml): virtually complete growth inhibition; cytotoxicity at 1.56 µg/mL ([3]; Homo sapiens, Daudi, 1.56 μg/ml, overnight, 37° C., read-out: % Cell Kill (means ± S.D.)): 2.75 ± 3.2%; cytotoxicity at 3.13 µg/mL ([3]; Homo sapiens, Daudi, 3.13 μg/ml, overnight, 37° C., read-out: % Cell Kill (means ± S.D.)): 6.25 ± 2.99%; cytotoxicity at 6.25 µg/mL ([3]; Homo sapiens, Daudi, 6.25 μg/ml, overnight, 37° C., read-out: % Cell Kill (means ± S.D.)): 9.75 ± 1.71%; cytotoxicity at 12.5 µg/mL ([3]; Homo sapiens, Daudi, 12.50 μg/ml, overnight, 37° C., read-out: % Cell Kill (means ± S.D.)): 42 ± 8.68%; cytotoxicity at 25 µg/mL ([3]; Homo sapiens, Daudi, 25.00 μg/ml, overnight, 37° C., read-out: % Cell Kill (means ± S.D.)): 100%; inhibition at 1.56 µg/mL ([4]; 20 hr.): 16%; inhibition at 3.13 µg/mL ([4]; 20 hr.): 29%; inhibition at 6.25 µg/mL ([4]; 20 hr.): 36%; inhibition at 12.5 µg/mL ([4]; 20 hr.): 49%; inhibition at 25 µg/mL ([4]; 20 hr.): 56%; inhibition at 1.56 µg/mL ([4]; 120 h, 5 days): 11%; inhibition at 3.13 µg/mL ([4]; 120 h, 5 days): 34%; inhibition at 6.25 µg/mL ([4]; 120 h, 5 days): 86%; inhibition at 12.5 µg/mL ([4]; 120 h, 5 days): 63%; inhibition at 25 µg/mL ([4]; 120 h, 5 days): 91%; inhibition at 1.56 µg/mL ([5]; DU-145, 1.56 μg/ml, 20 hr.): 0%; inhibition at 3.13 µg/mL ([5]; DU-145, 3.13 μg/ml, 20 hr.): 1%; inhibition at 6.25 µg/mL ([5]; DU-145, 6.25 μg/ml, 20 hr.): 8%; inhibition at 12.5 µg/mL ([5]; DU-145, 12.5 μg/ml, 20 hr.): 9%; inhibition at 25 µg/mL ([5]; DU-145, 25.0 μg/ml, 20 hr.): 11%; inhibition at 1.56 µg/mL ([5]; DU-145, 120 h, 1.56 μg/ml, 5 days): 54%; inhibition at 3.13 µg/mL ([5]; DU-145, 120 h, 3.13 μg/ml, 5 days): 85%; inhibition at 6.25 µg/mL ([5]; DU-145, 120 h, 6.25 μg/ml, 5 days): 99%; inhibition at 12.5 µg/mL ([5]; DU-145, 120 h, 12.5 μg/ml, 5 days): 100%; inhibition at 25 µg/mL ([5]; DU-145, 120 h, 25.0 μg/ml, 5 days): 100%; inhibition at 1.56 µg/mL ([6]; MS751, 1.56 μg/ml, 20 hr.): 8%; inhibition at 3.13 µg/mL ([6]; MS751, 3.13 μg/ml, 20 hr.): 24%; inhibition at 6.25 µg/mL ([6]; MS751, 6.25 μg/ml, 20 hr.): 20%; inhibition at 12.5 µg/mL ([6]; MS751, 12.5 μg/ml, 20 hr.): 28%; inhibition at 25 µg/mL ([6]; MS751, 25.0 μg/ml, 20 hr.): 41%; inhibition at 1.56 µg/mL ([6]; MS751, 120 h, 1.56 μg/ml, 5 days): 11%; inhibition at 3.13 µg/mL ([6]; MS751, 120 h, 3.13 μg/ml, 5 days): 23%; inhibition at 6.25 µg/mL ([6]; MS751, 120 h, 6.25 μg/ml, 5 days): 66%; inhibition at 12.5 µg/mL ([6]; MS751, 120 h, 12.5 μg/ml, 5 days): 90%; inhibition at 25 µg/mL ([6]; MS751, 120 h, 25.0 μg/ml, 5 days): 100%; inhibition at 1.56 µg/mL ([7]; JEG-3, 1.56 μg/ml, 20 hr.): 15%; inhibition at 3.13 µg/mL ([7]; JEG-3, 3.13 μg/ml, 20 hr.): 53%; inhibition at 6.25 µg/mL ([7]; JEG-3, 6.25 μg/ml, 20 hr.): 88%; inhibition at 12.5 µg/mL ([7]; JEG-3, 12.5 μg/ml, 20 hr.): 100%; inhibition at 25 µg/mL ([7]; JEG-3, 25.0 μg/ml, 20 hr.): 100%; inhibition at 1.56 µg/mL ([7]; JEG-3, 120 h, 1.56 μg/ml, 5 days): 18%; inhibition at 3.13 µg/mL ([7]; JEG-3, 120 h, 3.13 μg/ml, 5 days): 38%; inhibition at 6.25 µg/mL ([7]; JEG-3, 120 h, 6.25 μg/ml, 5 days): 91%; inhibition at 12.5 µg/mL ([7]; JEG-3, 120 h, 12.5 μg/ml, 5 days): 100%; inhibition at 25 µg/mL ([7]; JEG-3, 120 h, 25.0 μg/ml, 5 days): 100%; inhibition at 1.56 µg/mL ([8]; BT-20, 96 h, 4 days): 19%; inhibition at 3.13 µg/mL ([8]; BT-20, 96 h, 4 days): 52%; inhibition at 6.25 µg/mL ([8]; BT-20, 96 h, 4 days): 20%; inhibition at 12.5 µg/mL ([8]; BT-20, 96 h, 4 days): 12%; inhibition at 25 µg/mL ([8]; BT-20, 96 h, 4 days): 73%; inhibition at 1.56 µg/mL ([8]; BT-20, 48 hr.): 0%; inhibition at 3.13 µg/mL ([8]; BT-20, 48 hr.): 0%; inhibition at 6.25 µg/mL ([8]; BT-20, 48 hr.): 0%; inhibition at 12.5 µg/mL ([8]; BT-20, 48 hr.): 8%; inhibition at 25 µg/mL ([8]; BT-20, 48 hr.): 26%; inhibition at 1.56 µg/mL (U266B1 (myeloma); 1.56 μg/ml, read-out: % inhibition of cell proliferation): 8%; inhibition at 3.13 µg/mL (U266B1 (myeloma); 3.13 μg/ml, read-out: % inhibition of cell proliferation): 10%; inhibition at 6.25 µg/mL (U266B1 (myeloma); 6.25 μg/ml, read-out: % inhibition of cell proliferation): 10%; inhibition at 12.5 µg/mL (U266B1 (myeloma); 12.5 μg/ml, read-out: % inhibition of cell proliferation): 12%; inhibition at 25 µg/mL (U266B1 (myeloma); 25.0 μg/ml): 12%; inactivation of cell free HIV ([9]; 75 μg/ml dose): virtually complete inactivation of the virus; viability at 25 µg/mL ([9]; Human immunodeficiency virus 1, MT4, 264 h, MT-4 cells + HIV treated with 25 μg/ml, one hour 37° C., day 11, untreated HIV-1 36.75): 73.5%; viability at 50 µg/mL ([9]; Human immunodeficiency virus 1, MT4, 264 h, MT-4 cells + HIV treated with 50 μg/ml, one hour 37° C., day 11, untreated HIV-1 36.75): 94.3%; viability at 75 µg/mL ([9]; Human immunodeficiency virus 1, MT4, 264 h, MT-4 cells + HIV treated with 75 μg/ml, one hour 37° C., day 11, untreated HIV-1 36.75): 102%; inactivating human immunodeficiency virus (HIV-1) ([9]; conclusion): effective; inhibiting the proliferation of certain tumor cells (certain tumor cells): effective; % Cell Kill [10]: 64%
